# Data reported in patent US20220409686A1, “MEDICAL COMPOSITIONS AND THEIR USES” (BIOMILLENIA SAS, priority 2019, published 2022).
# Entries after “also recorded” stand apart in the source; their conditions may differ.
# Legend:
# Assay type in all cases: cell-based
# [1] = test system: Malassezia restricta; test: disc diffusion inhibition assay (Example 1); details: M. restricta lawn in soft agar; 6 mm discs soaked with 15 ul supernatant or ketoconazole 1 mg/ml in DMSO; 5 days incubation
# Protocol: (§1) FIG. 1|Inhibition assays of the fungicide ketoconazole as positive control for inhibition and Kazachstania unispora supernatant on M. sympodialis, M. furfur, M. restricta and M. globosa. Inhibition assays were performed using the disc diffusion method. Discs were soaked with ketoconazole (1 mg/ml) or K. unispora supernatant and placed on agar plates containing a soft layer inoculated with a single culture of the different Malassezia species to be tested.
# (§2) In order to identify strains inhibiting Malassezia growth, inhibition assays were performed using the disc diffusion method. This method consists in disposing discs imbibed with potential inhibitory substances on Petri plates containing a strain of interest. After optimal growth of the strain of interest, growth inhibition can be observed around discs soaked with substances having an inhibitory effect. Potential inhibitory substances tested in this experiment are supernatants obtained after individually culturing a collection of fungal and bacterial strains. After an incubation of 10 days in their optimal broth, each culture was centrifuged and the supernatant was filtered and further stored at −20° C. Ketoconazole, a fungicide, was used as a positive control for Malassezia growth inhibition. It was diluted in dimethyl sulfoxide at 1 mg/ml. The collection of supernantants was tested on the following species from the genus Malassezia: Malassezia restricta, Malassezia globosa, Malassezia furfur and Malassezia sympodialis. All strains were streaked from −80° C. stock on Modified Leeming and Notman (MLN) agar plates and incubated 10 days at 30° C. A 5 ml liquid culture of each species was made in MLN broth and incubated at 30° C. for 2 days for M. furfur and M. sympodialis and 5 days for M. restricta and M. globosa. To allow a lawn growth of the different Malassezia strains tested, Petri plates were prepared as follows: a bottom layer of 50 ml Modified Sabouraud Dextrose (MSD) agar was poured in Petri plates. The soft agar, constituting the top layer, was a mix of 12.5 ml MSD agar, 10.5 ml MLN broth and 2 ml of liquid culture. Plates were allowed to dry for one hour, then, 6 mm-diameter Whatman™ discs were soaked with 15 ul of each thawed supernatants and ketoconazole and placed on the soft agar plate containing the solidified Malassezia monoculture layer. After an incubation of 5 days, inhibition area could be easily observed around discs. As expected, ketoconazole inhibited all 4 Malassezia species tested in this experiment. […] The strain from which the inhibitory supernatant has been produced was further sequenced using the Sanger technology. The internal transcribed spacer (ITS) of this strain was taxonomically assigned to the yeast Kazachstania unispora (BLASTn, 99% identity, 99% query cover, e-value 0.00).
# [2] = test system: Malassezia sympodialis; test: disc diffusion inhibition assay (Example 1); details: M. sympodialis lawn in soft agar; 6 mm discs soaked with 15 ul supernatant or ketoconazole 1 mg/ml in DMSO; 5 days incubation
# Protocol: as §1, §2
# [3] = test system: Malassezia furfur; test: disc diffusion inhibition assay (Example 1); details: M. furfur lawn in soft agar; 6 mm discs soaked with 15 ul supernatant or ketoconazole 1 mg/ml in DMSO; 5 days incubation
# Protocol: as §1, §2
# [4] = test system: Malassezia globosa; test: disc diffusion inhibition assay (Example 1); details: M. globosa lawn in soft agar; 6 mm discs soaked with 15 ul supernatant or ketoconazole 1 mg/ml in DMSO; 5 days incubation
# Protocol: as §1, §2
# [5] = test system: Malassezia restricta; test: modified disc diffusion assay with living culture (Example 2); details: M. restricta lawn; discs soaked with 15 ul exponentially growing Acetobacter culture or ketoconazole 1 mg/mL in DMSO; 5 days incubation
# Protocol: (§3) FIG. 1|Inhibition assays of M. restricta and M. globose by growth of Acetobacter fabarum. Discs were soaked with ketoconazole (1 mg/ml in DMSO) or exponentially growing Acetobacter fabarum culture and placed on agar plates containing a soft layer inoculated with a single culture of the different Malassezia species to be tested. In the upper panel, inhibition of Malassezia globosa is shown; in the bottom panel, Malassezia restricta is shown.
# (§4) In order to identify strains whose growth inhibits Malassezia, inhibition assays were performed using a modified disc diffusion method. This method is similar to the classical disc diffusion method that consists in depositing discs imbibed with potential inhibitory substances on Petri plates containing a strain of interest, except that the discs were imbibed with a living culture of an Acetobacter strain. After optimal growth of the strain of interest, growth inhibition can be observed around discs on which the growth of inhibitory bacteria has occurred. Ketoconazole (at 1 mg/mL in DMSO) was used as a positive control for Malassezia growth inhibition. The effect of growth of Acetobacter was tested on Malassezia restricta and Malassezia globosa. All Malassezia strains were streaked from −80° C. stock on Modified Leeming and Notman (MLN) agar plates and incubated 10 days at 30° C. […]
# [6] = test system: Malassezia globosa; test: as above; details: M. globosa lawn; discs soaked with 15 ul exponentially growing Acetobacter culture or ketoconazole 1 mg/mL in DMSO; 5 days incubation
# Protocol: as §3, §4
structure (smiles),measurement,setting,value
CC(=O)N1CCN(c2ccc(OCC3COC(Cn4ccnc4)(c4ccc(Cl)cc4Cl)O3)cc2)CC1 (stereo not drawn) [ketoconazole],growth inhibition (inhibition halo around disc),[1],inhibits growth; also recorded: inhibited
same,growth inhibition (inhibition halo around disc),[2],inhibits growth; also recorded: inhibited
same,growth inhibition (inhibition halo around disc),[3],inhibits growth; also recorded: inhibited
same,growth inhibition (inhibition halo around disc),[4],inhibits growth; also recorded: inhibited
same,growth inhibition (inhibition halo around disc),[5],inhibits growth; also recorded: inhibited
same,growth inhibition (inhibition halo around disc),[6],inhibits growth; also recorded: inhibited
